Measured values from patent publication US12728116B2, “Methods of treating multiple sclerosis” (Vanda Pharmaceuticals Inc., priority 2021, dated 2026).

Experiments:
[1] = test system: adult subjects with relapsing MS; assay: Premature treatment discontinuation; format: in vivo; conditions: for Subjects discontinued due to AEs or tolerability related reasons: ponesimod 20 mg, teriflunomide 14 mg
Procedure: A total of 1468 subjects were screened. Of those, 1133 subjects were randomized (567 to ponesimod 20 mg and 566 to teriflunomide 14 mg) across 162 sites in 28 countries, and 1131 subjects received at least one dose of study drug. The disposition of subjects is summarized in Table 1 and a summary of reasons (primary reason) for treatment discontinuation are shown in Table 2. Overall treatment and study discontinuation were balanced across both treatment arms. A total of 6.5% and 2.5% of the subjects discontinued due to AEs or tolerability related reasons in ponesimod 20 mg and teriflunomide 14 mg, respectively, while 1.9% and 4.3% discontinued due to efficacy related reasons. There were 2 deaths reported during the study—both on teriflunomide 14 mg.

[2] = test system: adult subjects with relapsing MS; assay: Confirmed relapses up to EOS - annualized relapse rate (ARR), phase III study; format: in vivo, human; conditions: for Total number of relapses (confirmed, up to EOS): total time 1119 / 1137 years; for Mean estimate (ARR), confirmed relapses up to EOS, negative binomial regression: ponesimod 20 mg, teriflunomide 14 mg
Procedure: Primary efficacy variable/primary timepoint: The primary endpoint was annualized relapse rate (ARR) up to the end of study (EOS) defined as the number of confirmed relapses per subject-year. All available data up to EOS, regardless of treatment discontinuation was included (ITT approach).
A generalized linear model with negative binomial distribution was fitted for the primary efficacy endpoint ARR. Two-sided hypotheses were expressed in terms of the model parameters μP20 mg and μT14 mg.
The primary statistical analysis of the ARR endpoint was performed on the FAS using a negative binomial model for confirmed relapses, with the stratification variables prior use of disease-modifying therapies (DMTs) and EDSS category as well as the number of relapses in the year prior to study entry, included in the model and time in the study as an offset variable. Sensitivity analyses was performed on the PPS and also based on different subgroups derived from baseline variables.
A relapse is defined as new, worsening or recurrent neurological symptoms that occur at least 30 days after the onset of a preceding relapse, and that last at least 24 hours, in the absence of fever or infection.
A relapse was confirmed by the treating neurologist only when the subjects' symptoms were accompanied by an increase in EDSS/FS (functional system) scores, which were consistent with the subject's symptoms, from a previous clinically stable EDSS/FS assessment (i.e., performed at least 30 days after the onset of any previous relapse), obtained by the efficacy assessor and consistent with the following: • An increase of at least half a step (0.5 points; unless EDSS=0, then an increase of at least 1.0 points is required) or • An increase of at least 1.0 point in at least two FS scores, or • An increase of at least 2.0 points in at least one FS score (excluding bladder/bowel and cerebral).
The primary statistical analysis was performed up to EOS on the FAS using a negative binomial regression model for confirmed relapses, with treatment as a factor and the binary stratification variables (EDSS≤3.5 versus EDSS>3.5; DMTs within last 2 years prior to randomization [Yes/No]) and the number of relapses in the year prior to study entry (categories≤1 (or missing) and […]) included in the model. The model also included an offset variable defined as the log of time on study (in years) from randomization up to EOS.
This subgroup analysis examined patients with EDSS≤3 (up to moderate disability in one function, or mild disability in three or four functions; no impairment to walking), and/or who were treatment naïve.
ARR differences and mean number of CUALs were examined using a negative binomial regression model with adjusting for the log time in the study (in years) as an offset.

CCC/N=C1\S/C(=C\c2ccc(OC[C@H](O)CO)c(Cl)c2)C(=O)N1c1ccccc1C [Ponesimod, (R)-5-[3-chloro-4-(2,3-dihydroxy-propoxy)-benz[Z]ylidene]-2-([Z]-propylimino)-3-o-tolyl-thiazolidin-4-one]
Premature discontinuation: Physician decision, Adverse event, % ([1]; Safety Set): (5.1) % | Premature discontinuation: Subject decision, Tolerability related, % ([1]; Safety Set): (1.4) % | Subjects discontinued due to AEs or tolerability related reasons [1]: 6.5% | ARR rate ratio (RR), ponesimod vs teriflunomide ([2]; EDSS≤3 subgroup): 0.530 | Reduction of ARR vs teriflunomide ([2]; EDSS≤3 subgroup): 47% | Raw ARR ([2]; Full Analysis Set): 0.216 | Total number of relapses (confirmed, up to EOS) ([2]; Full Analysis Set): 242 | Reduction of ARR (confirmed relapses) up to EOS compared to teriflunomide ([2]; ponesimod 20 mg vs teriflunomide 14 mg): 30.5% | Treatment effect (rate ratio) on ARR, ponesimod vs teriflunomide ([2]; ponesimod 20 mg vs teriflunomide 14 mg, Full Analysis Set): 0.695 | Mean estimate (ARR), confirmed relapses up to EOS, negative binomial regression ([2]; Full Analysis Set): 0.202

C/C(O)=C(\C#N)C(=O)Nc1ccc(C(F)(F)F)cc1 [Teriflunomide, reference compound]
Premature discontinuation: Death, % ([1]; Safety Set): (0.4) % | Premature discontinuation: Physician decision, Adverse event, % ([1]; Safety Set): (1.6) % | Premature discontinuation: Subject decision, Tolerability related, % ([1]; Safety Set): (0.9) % | Subjects discontinued due to AEs or tolerability related reasons [1]: 2.5% | Raw ARR ([2]; Full Analysis Set): 0.303 | Total number of relapses (confirmed, up to EOS) ([2]; Full Analysis Set): 344 | Mean estimate (ARR), confirmed relapses up to EOS, negative binomial regression ([2]; Full Analysis Set): 0.290
